Reference: the supplement of paper PMC10307832

Legend:
Experiment in all cases: relative viability (nuclei count vs DMSO), 5 days (fraction); higher = more cells survive
[1] = compound: CNC(=O)c1cc(Oc2ccc(NC(=O)Nc3ccc(Cl)c(C(F)(F)F)c3)cc2)ccn1 [Sorafenib] + CS(=O)(=O)CCNCc1ccc(-c2ccc3ncnc(Nc4ccc(OCc5cccc(F)c5)c(Cl)c4)c3c2)o1 [Lapatinib] (partner 2 µM)
Outline: (§1)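 Each reported value is a median over duplicate plates. It expresses relative viability: treated-well nuclei count divided by vehicle-well nuclei count. Lung cancer cell lines in 1536-well plates were dosed by pin tool a day after seeding, alone with one drug or with a fixed anchor-drug dose plus five library-drug doses (not always all listed) in √10 steps, and nuclei were counted after 5 days.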

[2] = compound: CNC(=O)c1cc(Oc2ccc(NC(=O)Nc3ccc(Cl)c(C(F)(F)F)c3)cc2)ccn1 [Sorafenib] + Cc1nc(Nc2ncc(C(=O)Nc3c(C)cccc3Cl)s2)cc(N2CCN(CCO)CC2)n1 [Dasatinib] (partner 0.075 µM)
Outline: as §1

[3] = compound: CNC(=O)c1cc(Oc2ccc(NC(=O)Nc3ccc(Cl)c(C(F)(F)F)c3)cc2)ccn1 [Sorafenib] + Nc1ncn([C@H]2C[C@H](O)[C@@H](CO)O2)c(=O)n1 [Decitabine] (partner 2 µM)
Outline: as §1

[4] = compound: CNC(=O)c1cc(Oc2ccc(NC(=O)Nc3ccc(Cl)c(C(F)(F)F)c3)cc2)ccn1 [Sorafenib] + O=C(CCCCCCC(=O)Nc1ccccc1)NO [Vorinostat] (partner 1 µM)
Outline: as §1

[5] = compound: CNC(=O)c1cc(Oc2ccc(NC(=O)Nc3ccc(Cl)c(C(F)(F)F)c3)cc2)ccn1 [Sorafenib] + O=C(c1cc(Cc2n[nH]c(=O)c3ccccc23)ccc1F)N1CCN(C(=O)C2CC2)CC1 [Olaparib] (partner 8 µM)
Outline: as §1

Cell Line	relative viability ([1]; first compound 0.08 µM)	relative viability ([1]; first compound 0.253 µM)	relative viability ([1]; first compound 8 µM)	relative viability ([2]; first compound 0.08 µM)	relative viability ([2]; first compound 0.253 µM)	relative viability ([2]; first compound 2.53 µM)	relative viability ([2]; first compound 8 µM)	relative viability ([3]; first compound 0.08 µM)	relative viability ([3]; first compound 0.253 µM)	relative viability ([3]; first compound 2.53 µM)	relative viability ([3]; first compound 8 µM)	relative viability ([4]; first compound 0.08 µM)	relative viability ([4]; first compound 0.253 µM)	relative viability ([4]; first compound 2.53 µM)	relative viability ([4]; first compound 8 µM)	relative viability ([5]; first compound 0.08 µM)	relative viability ([5]; first compound 0.253 µM)	relative viability ([5]; first compound 2.53 µM)	relative viability ([5]; first compound 8 µM)	relative viability ([1]; first compound 2.53 µM)
201T	1.06	0.991	1.03	0.584	0.578	0.596	0.458	0.854	0.816	0.867	0.879	1.01	0.946	0.963	0.926	0.812	0.88	0.877	0.843	
A-427	1.04	0.948	1.06	0.75	0.671		0.31	0.598	0.528		0.532	0.84	0.894	0.914	1.01	0.71	0.771	0.733	0.635	1.01
ABC-1	1.25	1.19	0.726	0.625	0.493	0.619	0.351	1.23		0.823	1	1.23	0.811	1.22	0.482		0.565	0.693	0.4	1.23
BEN	0.857	0.675	0.614	0.342	0.255	0.381	0.309	0.746	0.726		0.461	0.567	0.621	0.685	0.593	1.02	1.1	1.01	0.791	0.782
CAL-12T	0.768	0.685	0.682	0.658		0.415	0.114					0.723	0.722	0.72	0.494	0.81	0.616	0.639	0.602	0.724
COR-L23	1.08	0.795	0.914	0.55	0.495	0.514	0.235	0.417	0.374	0.501	0.332	0.512	0.413	0.478	0.32	0.336	0.372	0.346	0.233	0.921
COR-L 105	0.413	0.393	0.389	0.475	0.31		0.356	0.733	0.617	0.695	0.573	1.01	0.696	0.946	0.551	0.697	0.72	0.78	0.718	0.482
ChaGo-K-1				0.649	0.505	0.577	0.455	0.532	0.537	0.51	0.471	0.737	0.689	0.775	0.557	0.41	0.388	0.441	0.361	
EKVX	0.248	0.2	0.229	0.628	0.449	0.376	0.349	0.339	0.362	0.378	0.305	0.718	0.723	0.832	0.803	0.91	0.76	0.796	0.682	0.249
